In US20100099564A1, “HERBICIDE COMBINATION COMPRISING DIMETHOXYTRIAZINYL-SUBSTITUTED DIFLUOROMETHANESULFONYLANILIDES” (BAYER CROPSCIENCE AG, priority 2008, published 2010):
Like-named read-outs stand apart in the source and are kept apart here.

Experiments:
Format in all cases: in vivo
[1] = tested on: Lolium multiflorum (LOLMU); assay: Post-emergence action, greenhouse pot test, visual scoring: LOLMU
Description: (§1) Seeds or rhizome pieces of mono- and dicotyledonous harmful and useful plants were placed in peat pots (diameter 4 cm) filled with sandy loam and then covered with soil. The pots were kept in a greenhouse under optimum conditions. In addition, harmful plants encountered in paddy rice cultivation were cultivated in pots with a water level 2 cm above the soil surface.
(§2) About three weeks after the start of the cultivation, the test plants were treated at the 2- to 3-leaf stage. The herbicides, formulated as powder or liquid concentrates, were, either alone or in the combinations according to the invention, sprayed in various dosages on to the green parts of the plants using an application rate of 600 l of water/ha (converted). For further cultivation of the plants, the pots were then again kept under optimum conditions in a greenhouse.
(§3) The visual scoring of the herbicidal effects was carried out in intervals up to 21 days after the treatment. Scoring was carried out in percent in comparison to the untreated control plants. 0%=no herbicidal activity, 100%=complete herbicidal activity=complete kill.
(§4) The percentages from the treatments with the herbicides alone (=individual application) and with the combinations according to the invention (=mixtures) were employed to calculate interactions using the method of Colby. When the observed efficacies of the mixtures exceed the formal sum of the values of the tests with individual applications, they also exceed the expected value according to Colby, which is calculated using the formula below (cf. S. R. Colby; in Weeds 15 (1967) pp. 20 to 22):
(§5) Here: • A, B=activity of components A and B in percent at a dosage of a and b g of ai/ha (=gramm of active substance per hectare), respectively. • E=expected value in % at a dosage of a+b g of ai/ha.
(§6) The combinations according to the invention of herbicides from group (A) with herbicides from group (B) were tested on a broad spectrum of important harmful plants (weed grasses, broad-leaved weeds/Cyperaceae) and useful plants: Triticum aestivum (TRZAS), Stellaria media (STEME), Lolium multiflorum (LOLMU), Veronica persica (VERPE), Alopecurus myosuroides (ALOMY), Matricaria inodora (MATIN), Brassica napus (BRSNW), Viola tricolor (VIOTR), Avena fatua (AVEFA), Amaranthus retroflexus (AMARE), Zea mays (ZEAMX), Pharbitis purpurea (PHBPU), Setaria viridis (SETVI), Fallopia (ex Polygonum) convolvulus (POLCO), Echinochloa crusgaffi (ECHCG), Abuthilon theophrasti (ABUTH), Cyperus esculentus (CYPES), Oryza sativa (ORYSA).
(§7) Of particular interest are the results shown in the tables (Tab.) below, where the following key is used: • (1) EPPO code (former Bayer code) for the treated plant (see above) • (2) Time of scoring: DAT (days after treatment) • (3) Component A tested (identifying number) • (4) Component B tested (identifying number) • (5) Dosage component A [g of ai/ha] • (6) Dosage component B [g of ai/ha] • (7) % activity found • (8) E value (calculated according to Colby; see above) • (9) Comments: “SYNERGY” =synergistic interaction (E value<% activity found); “SAFENING”=safener action on useful plant (E value>% activity found)

Veronica persica (VERPE) = assay: Post-emergence action, greenhouse pot test, visual scoring: VERPE; settings: 21 DAT
Description: as §1, §2, §3, §4, §5, §6, §7

[2] = tested on: Cyperus esculentus (CYPES); assay: Post-emergence action, greenhouse pot test, visual scoring: CYPES; settings: 21 DAT
Description: as §1, §2, §3, §4, §5

[3] = tested on: Triticum aestivum (TRZAS); assay: Post-emergence action, greenhouse pot test, visual scoring: TRZAS
Description: as §1, §2, §3, §4, §5, §6, §7

Avena fatua (AVEFA) = assay: Post-emergence action, greenhouse pot test, visual scoring: AVEFA
Description: as §1, §2, §3, §4, §5, §6, §7

Zea mays (ZEAMX) = assay: Post-emergence action, greenhouse pot test, visual scoring: ZEAMX; settings: for plant injury at 40 g/ha: B 40 g of ai/ha; for plant injury at 700 g/ha: B 700 g of ai/ha; for plant injury at 2100 g/ha: B 2100 g of ai/ha
Description: as §1, §2, §3, §4, §5, §6, §7

Oryza sativa (ORYSA) = assay: Post-emergence action, greenhouse pot test, visual scoring: ORYSA
Description: as §1, §2, §3, §4, §5, §6, §7

Viola tricolor (VIOTR) = assay: Post-emergence action, greenhouse pot test, visual scoring: VIOTR; settings: for (7) % activity found: rate (6) 2
Description: as §1, §2, §3, §4, §5, §6, §7

[4] = tested on: Alopecurus myosuroides (ALOMY); assay: Post-emergence action, greenhouse pot test, visual scoring: ALOMY; settings: Alopecurus myosuroides, post-emergence, read-out: % activity found; for pest or weed control at 40 g/ha: B 40 g of ai/ha
Description: as §1, §2, §3, §4, §5

Setaria viridis (SETVI) = assay: Post-emergence action, greenhouse pot test, visual scoring: SETVI; settings: Setaria viridis, post-emergence, 504 h, 21 DAT, read-out: % activity found
Description: as §1, §2, §3, §4, §5, §6, §7

[5] = tested on: Matricaria inodora (MATIN); assay: Post-emergence action, greenhouse pot test, visual scoring: MATIN
Description: as §1, §2, §3, §4, §5

[6] = tested on: Pharbitis purpurea (PHBPU); assay: Post-emergence action, greenhouse pot test, visual scoring: PHBPU; settings: 21 DAT
Description: as §1, §2, §3, §4, §5, §6, §7

[7] = tested on: Fallopia (ex Polygonum) convolvulus (POLCO); assay: Post-emergence action, greenhouse pot test, visual scoring: POLCO; settings: 21 DAT
Description: as §1, §2, §3, §4, §5, §6, §7

[8] = Zea mays, post-emergence, 240 h, 10 DAT, read-out: % activity found
[9] = Zea mays, post-emergence, 504 h, 21 DAT, read-out: % activity found

## COCCOc1ccccc1S(=O)(=O)NC(=O)Nc1nc(OC)nc(OC)n1 [B7-6, N-[[(4,6-dimethoxy-1,3,5-triazin-2-yl)amino]carbonyl]-2-(2-methoxyethoxy)benzenesulfonamide]
[1]; 10 DAT, dose (6) 7
  % activity found: 40%
[1]; 21 DAT, dose (6) 7
  % activity found: 10%
Veronica persica (VERPE); dose (6) 7
  % activity found: 0%
Veronica persica (VERPE); dose (6) 21
  % activity found: 0%
[2]; dose (6) 21
  % activity found: 0%

## COC(=O)c1csc(C)c1S(=O)(=O)NC(=O)n1nc(OC)n(C)c1=O [B8-3, methyl 4-[[[(4,5-dihydro-3-methoxy-4-methyl-5-oxo-1H-1,2,4-triazol-1-yl)carbonyl]amino]sulfonyl]-5-methyl-3-thiophenecarboxylate]
[3]; 21 DAT, rate (6) 2
  (7) % activity found: 30%
Veronica persica (VERPE); rate (6) 2
  (7) % activity found: 40%
Avena fatua (AVEFA); 21 DAT, rate (6) 0.7
  (7) % activity found: 50%
Zea mays (ZEAMX); 21 DAT, rate (6) 2
  (7) % activity found: 20%
[2]; rate (6) 0.7
  (7) % activity found: 0%
Oryza sativa (ORYSA); 10 DAT, rate (6) 0.7
  (7) % activity found: 50%
Oryza sativa (ORYSA); 10 DAT, rate (6) 2
  (7) % activity found: 70%
Oryza sativa (ORYSA); 21 DAT, rate (6) 2
  (7) % activity found: 40%

## COC(=O)c1ccc(I)cc1S(=O)(=O)NC(=O)Nc1nc(C)nc(OC)n1.[Na] [B7-16, methyl 4-iodo-2-[[[[(4-methoxy-6-methyl-1,3,5-triazin-2-yl)amino]carbonyl]amino]sulfonyl]benzoate sodium salt]
[3]; 10 DAT, rate (6) 2
  (7) % activity found: 40%
[3]; 21 DAT, rate (6) 2
  (7) % activity found: 20%
[3]; 21 DAT, rate (6) 6
  (7) % activity found: 60%
Viola tricolor (VIOTR); 10 DAT
  (7) % activity found: 70%
Viola tricolor (VIOTR); 21 DAT
  (7) % activity found: 90%
Avena fatua (AVEFA); 21 DAT, rate (6) 2
  (7) % activity found: 10%
Zea mays (ZEAMX); 10 DAT, rate (6) 2
  (7) % activity found: 30%
Zea mays (ZEAMX); 10 DAT, rate (6) 6
  (7) % activity found: 20%
Zea mays (ZEAMX); 21 DAT, rate (6) 2
  (7) % activity found: 0%
Oryza sativa (ORYSA); 10 DAT, rate (6) 2
  (7) % activity found: 90%
Oryza sativa (ORYSA); 21 DAT, rate (6) 2
  (7) % activity found: 70%

## O=C(Nc1ccc(F)cc1F)c1cccnc1Oc1cccc(C(F)(F)F)c1 [B3-1, N-(2,4-difluorophenyl)-2-[3-(trifluoromethyl)phenoxy]-3-pyridinecarboxamide]
[3]; Triticum aestivum, post-emergence, 240 h, 10 DAT, B 40 g of ai/ha, read-out: % activity found
  plant injury at 40 g/ha: 20%
[1]; 21 DAT, B 120 g of ai/ha
  % activity found: 30%
[4]; 240 h, 10 DAT
  pest or weed control at 40 g/ha: 40%
[4]; 504 h, 21 DAT
  pest or weed control at 40 g/ha: 10%
[4]; 504 h, 21 DAT, B 120 g of ai/ha
  pest or weed control at 120 g/ha: 20%
Zea mays (ZEAMX); [8]
  plant injury at 40 g/ha: 40%
Zea mays (ZEAMX); Zea mays, post-emergence, 240 h, 10 DAT, B 120 g of ai/ha, read-out: % activity found
  plant injury at 120 g/ha: 40%
Zea mays (ZEAMX); [9]
  plant injury at 40 g/ha: 30%
Setaria viridis (SETVI); B 40 g of ai/ha
  pest or weed control at 40 g/ha: 60%
[2]; B 40 g of ai/ha
  % activity found: 0%
[2]; B 120 g of ai/ha
  % activity found: 0%
Oryza sativa (ORYSA); Oryza sativa, post-emergence, 504 h, 21 DAT, B 40 g of ai/ha, read-out: % activity found
  plant injury at 40 g/ha: 30%
Oryza sativa (ORYSA); Oryza sativa, post-emergence, 504 h, 21 DAT, B 120 g of ai/ha, read-out: % activity found
  plant injury at 120 g/ha: 50%

## CCC(=O)Nc1ccc(Cl)c(Cl)c1 [B3-8, N-(3,4-dichlorophenyl)propanamide]
[3]; Triticum aestivum, post-emergence, 504 h, 21 DAT, B 700 g of ai/ha, read-out: % activity found
  plant injury at 700 g/ha: 10%
[1]; 10 DAT, B 700 g of ai/ha
  % activity found: 0%
[4]; 504 h, 21 DAT, B 700 g of ai/ha
  pest or weed control at 700 g/ha: 0%
[4]; 504 h, 21 DAT, B 2100 g of ai/ha
  pest or weed control at 2100 g/ha: 20%
[5]; 10 DAT, B 700 g of ai/ha
  % activity found: 0%
[5]; 10 DAT, B 2100 g of ai/ha
  % activity found: 0%
[5]; 21 DAT, B 700 g of ai/ha
  % activity found: 0%
[5]; 21 DAT, B 2100 g of ai/ha
  % activity found: 0%
Viola tricolor (VIOTR); 21 DAT, B 700 g of ai/ha
  % activity found: 60%
Viola tricolor (VIOTR); 21 DAT, B 2100 g of ai/ha
  % activity found: 70%
Avena fatua (AVEFA); 10 DAT, B 700 g of ai/ha
  % activity found: 20%
Avena fatua (AVEFA); 21 DAT, B 700 g of ai/ha
  % activity found: 0%
Avena fatua (AVEFA); 21 DAT, B 2100 g of ai/ha
  % activity found: 10%
Zea mays (ZEAMX); [8]
  plant injury at 700 g/ha: 0%
  plant injury at 2100 g/ha: 0%
Zea mays (ZEAMX); [9]
  plant injury at 700 g/ha: 0%
  plant injury at 2100 g/ha: 0%
[6]; B 2100 g of ai/ha
  % activity found: 40%
Setaria viridis (SETVI); B 2100 g of ai/ha
  pest or weed control at 2100 g/ha: 80%
[7]; B 700 g of ai/ha
  % activity found: 50%
[2]; B 700 g of ai/ha
  % activity found: 0%
[2]; B 2100 g of ai/ha
  % activity found: 0%
Oryza sativa (ORYSA); Oryza sativa, post-emergence, 504 h, 21 DAT, B 700 g of ai/ha, read-out: % activity found
  plant injury at 700 g/ha: 0%
Oryza sativa (ORYSA); Oryza sativa, post-emergence, 504 h, 21 DAT, B 2100 g of ai/ha, read-out: % activity found
  plant injury at 2100 g/ha: 0%

## COc1cnc(OC)n2nc(NS(=O)(=O)c3c(OCC(F)F)cccc3C(F)(F)F)nc12 [B9-6, 2-(2,2-difluoroethoxy)-N-(5,8-dimethoxy[1,2,4]triazolo[1,5-c]pyrimidin-2-yl)-6-(trifluoromethyl)benzenesulfonamide]
[3]; 10 DAT, rate (6) 15
  (7) % activity found: 10%
[3]; 21 DAT, rate (6) 15
  (7) % activity found: 0%
[1]; 21 DAT, rate (6) 5
  (7) % activity found: 20%
Zea mays (ZEAMX); 10 DAT, rate (6) 5
  (7) % activity found: 0%
Zea mays (ZEAMX); 10 DAT, rate (6) 15
  (7) % activity found: 30%
[6]; rate (6) 5
  (7) % activity found: 10%
[6]; rate (6) 15
  (7) % activity found: 30%

## COC(=O)c1ccc(CNS(C)(=O)=O)cc1S(=O)(=O)NC(=O)Nc1nc(OC)cc(OC)n1 [B7-17, methyl 2-[[[[(4,6-dimethoxy-2-pyrimidinyl)amino]carbonyl]amino]sulfonyl]-4-[[(methylsulfonyl)amino]methyl]benzoate]
[3]; 10 DAT, rate (6) 2
  (7) % activity found: 40%
[3]; 10 DAT, rate (6) 6
  (7) % activity found: 60%
[3]; 21 DAT, rate (6) 2
  (7) % activity found: 20%
[3]; 21 DAT, rate (6) 6
  (7) % activity found: 70%
Avena fatua (AVEFA); 21 DAT, rate (6) 2
  (7) % activity found: 20%
Avena fatua (AVEFA); 21 DAT, rate (6) 6
  (7) % activity found: 70%
Zea mays (ZEAMX); 10 DAT, rate (6) 6
  (7) % activity found: 40%
[7]; rate (6) 2
  (7) % activity found: 40%
[7]; rate (6) 6
  (7) % activity found: 50%
Oryza sativa (ORYSA); 10 DAT, rate (6) 6
  (7) % activity found: 90%
